According to patent US20250289842A1, “Processes for Making NAG-25, a Carbohydrate Targeting Moiety, and its Intermediates” (AMGEN INC., priority 2022, published 2025):

Test: High Throughput Experimentation (HTE) solubility screen, solvent/heptane mixtures for crystallization
Format: physicochemical
Conditions: 20° C., 2-MeTHF
Method: A High Throughput Experimentation (HTE) solubility screen was conducted to determine the solvent/anti-solvent combination for the crystallization and align the reaction solvent with the crystallization solvent. Solubility studies of t-Butyl Core at 20° C. were conducted for various percentages of heptane. […] The solubility screen pointed to MTBE/heptane being one example of a useful solvent mixture for crystallization because of its gradual solubility curve.

## CC(C)(C)OC(=O)CC[C@H](NC(=O)CC[C@H](NC(=O)OCc1ccccc1)C(=O)OC(C)(C)C)C(=O)OC(C)(C)C [t-Butyl Core]
MIBK or IPAc with 80% heptane
  solubility of t-Butyl Core: 50 mg/mL
MIBK or IPAc with 90% heptane
  solubility of t-Butyl Core: 10 mg/mL
